# Reference: PMC8241751, “Influence of the Dabcyl group on the cellular uptake of cationic peptides: short oligoarginines as efficient cell-penetrating peptides” (Amino Acids, 2021)
# Where a SMILES comes first, the peptide text is derived from it. The star is where a group is joined. 5FAM = O=C1OC2(c3ccc(O)cc3Oc3cc(O)ccc32)c2ccc(C(=O)*)cc21; X1 = CN(C)c1ccc(/N=N/c2ccc(C(=O)*)cc2)cc1
# Test system: CHO-K1 cells
# Assay: Absolute quantification of total internalised peptide by fluorometry
# Conditions: for Total (37 °C–4 °C) (pmoles) Endocyt. / 4 °C/37 °C (Fluoro): CHO-K1, 60 min; for Total (37 °C–4 °C) (pmoles) Endocyt.: difference of fluorometry values at 37 °C and 4 °C; for 4 °C/37 °C (Fluoro): internalisation ratio by fluorometry; for Total 4 °C (pmoles) Transloc. / Total 37 °C (pmoles) Endocyt. + Transloc.: one million CHO-K1 cells, DMEM-F12, 60 min, cell lysis, fluorometry 525 nm vs calibration curve, mean values; for Total 4 °C (pmoles) Transloc.: pronase wash; for Total 37 °C (pmoles) Endocyt. + Transloc.: trypsin wash
# Description: We used the quantification method described earlier (Illien et al. [2016]). […] After incubation with peptides and washing the cells with HBSS, 500 μL 0.05% trypsin/EDTA 0.05% (37 °C) or 500 µL pronase 0.05% in 100 mM Tris pH 7.4 (4 °C) was added for 5 min to hydrolyze the remaining extracellular peptide, the membrane-bound peptide and to detach cells. After addition of 100 µL enzyme inhibitors (complete mini at 4 °C (Roche) or trypsin inhibitor (soybean inhibitor 5 mg/mL) at 37 °C mixed with 100 μL bovine serum albumin (1 mg/mL), cells were transferred into a microtube, centrifuged, washed with 1 mL 50 mM Tris buffer pH 7.4, 0.1% BSA, and lysed in 200 μL 50 mM Tris pH 7.4, 1 M NaCl, 1% Nonident P40. The samples were then sonicated for 15 min (to homogenise samples) and centrifugated for 10 min at 16.000 g. Fluorescence intensity in the supernatants was monitored with a MOS 200 M fluorimeter (Biologic SAS) and the maximal intensity was detected around λ = 525 nm. The maximal intensity was retained for the calibration curve and for quantification of samples. The amount of internalised peptides was calculated by comparing the fluorescence intensity of the sample with the calibration curve. For the calibration curve, we prepared a range of peptide amounts (from 2 to 500 pmol) in the lysis buffer (50 mM Tris pH 7.4, 1 M NaCl, 1% Nonidet P40) in the presence of one million suspended cells. The samples were sonicated 15 min and centrifuged at 16.000 g for 10 min. Fluorescence intensity in the supernatants was monitored with a MOS 200 M fluorimeter (Biologic SAS, France) and the maximal intensity was detected around λ = 525 nm. The fluorescence signal of peptides only was obtained by subtracting the fluorescence intensity of cell lysates (autofluorescence) from the fluorescence intensity of the sample.
smiles,measurement,setting,value
CN(C)c1ccc(/N=N/c2ccc(C(=O)N[C@@H](CCCNC(=N)N)C(=O)N[C@@H](CCCNC(=N)N)C(=O)N[C@@H](CCCNC(=N)N)C(=O)N[C@@H](CCCNC(=N)N)C(=O)N[C@@H](CCCNC(=N)N)C(=O)N[C@@H](CCCNC(=N)N)C(=O)N[C@@H](CCCCNC(=O)c3ccc4c(c3)C(=O)OC43c4ccc(O)cc4Oc4cc(O)ccc43)C(N)=O)cc2)cc1 [Dabcyl–Arg6–Lys(Cf)–NH2] (X1-RRRRRRK(5FAM)-NH2),Total (37 °C–4 °C) (pmoles) Endocyt.,[peptide] 1 μM,1.9 pmol
same,4 °C/37 °C (Fluoro),[peptide] 1 μM,0.25
same,Total 4 °C (pmoles) Transloc.,[peptide] 1 μM,0.6 ± 0.04 pmol
same,Total 37 °C (pmoles) Endocyt. + Transloc.,[peptide] 1 μM,2.5 ± 0.2 pmol
same,Total (37 °C–4 °C) (pmoles) Endocyt.,[peptide] 2.5 μM,22 pmol
same,4 °C/37 °C (Fluoro),[peptide] 2.5 μM,0.08
same,Total 4 °C (pmoles) Transloc.,[peptide] 2.5 μM,1.9 ± 0.3 pmol
same,Total 37 °C (pmoles) Endocyt. + Transloc.,[peptide] 2.5 μM,24 ± 1.3 pmol
same,Total (37 °C–4 °C) (pmoles) Endocyt.,[peptide] 5 μM,53 pmol
same,4 °C/37 °C (Fluoro),[peptide] 5 μM,0.10
same,Total 4 °C (pmoles) Transloc.,[peptide] 5 μM,6.1 ± 0.8 pmol
same,Total 37 °C (pmoles) Endocyt. + Transloc.,[peptide] 5 μM,59 ± 2.5 pmol
same,Total (37 °C–4 °C) (pmoles) Endocyt.,[peptide] 10 μM,131 pmol
same,4 °C/37 °C (Fluoro),[peptide] 10 μM,0.12
same,Total 4 °C (pmoles) Transloc.,[peptide] 10 μM,18 ± 2 pmol
same,Total 37 °C (pmoles) Endocyt. + Transloc.,[peptide] 10 μM,149 ± 6 pmol
